The source of these data is ChEMBL document CHEMBL1201862, “PubChem BioAssay data set” (2004).

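96-well plates; 48 h exposure; 5 concentrations. Endpoints by linear interpolation between flanking doses. Not reached: highest tested concentration assigned. GI50 is the concentration that inhibits growth by half.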 Calls of active or inactive are those of the source. Cut-off read from the data, not from the text of the source: active = GI50 up to about 1.1 µM and inactive = higher.

Some test systems named below: NCI-H23; HL-60; NCI-H522; HCT-15; 786-0; SK-MEL-2; HT-29; OVCAR-4; HOP-92; SN12C; SW-620; M14; LXFL 529; SR; NCI-H226.
Common to all, as to experiment: NCI anticancer screen, dose series, 48 h

For `OC1CC1Sc1ccccc1` (stereo unspecified), the GI50 is 35.6 µM (inactive) in the assay with NCI-H23; 14.2 µM (inactive) with HL-60; 17.6 µM (inactive) in the assay on NCI-H522; 36.7 µM with HCT-15; 21 µM (inactive) with 786-0; 38.1 µM (inactive) in the assay on SK-MEL-2. Further, the GI50 was 27.2 µM (inactive) with HT-29; 30.5 µM (inactive) in the assay on OVCAR-4; 29.6 µM (inactive) in the assay with HOP-92; 24 µM (inactive) in the assay with SN12C; 25.8 µM (inactive) with SW-620; 36.6 µM (inactive) in the assay on M14. In addition, the GI50 with LXFL 529 was 22.8 µM (inactive).

Regarding `CCCC/C=C1\CCC(CN2CCCC2)C1=O` (stereo unspecified), the GI50 in the assay with SR was 4.36 µM (inactive); in the assay with NCI-H23, 17.7 µM (inactive); with HL-60, 8.61 µM (inactive); in the assay on HCT-15 it was 3.13 µM; in the assay with 786-0, 1.83 µM (inactive); in the assay with NCI-H226 it was 17.3 µM (inactive). In addition, the GI50 in the assay with SK-MEL-2 was 16 µM (inactive); in the assay with HT-29, 14.5 µM (inactive); in the assay with HOP-92 it was 12.1 µM (inactive); in the assay with SN12C, 17.9 µM (inactive); in the assay on SW-620, 2.07 µM (inactive); in the assay with M14 it was 11.2 µM (inactive). In addition, in the assay with LXFL 529, the GI50 is 1.56 µM (inactive).

In the case of `C/C(CC(=O)Nc1ccc(C)c(C)c1)=N\NC(N)=O`, the GI50 with NCI-H23 was > 100 µM (inactive); with HL-60 it was > 100 µM (inactive); in the assay with NCI-H522, 82 µM (inactive); in the assay with 786-0, > 100 µM (inactive); with NCI-H226, 57.9 µM (inactive); in the assay with SK-MEL-2, > 100 µM (inactive). Besides, the GI50 in the assay on HT-29, in the assay with HOP-92, in the assay on SW-620, in the assay on M14 and with LXFL 529 was > 100 µM (inactive) throughout.

As to `Cn1c2cc([N+](=O)[O-])ccc2c(=O)c2c(O)cc3c(c21)C=CC(C)(C)O3`, the GI50 was 63.4 µM (inactive) in the assay on NCI-H23; > 100 µM (inactive) with HL-60; 46.5 µM (inactive) with NCI-H522; greater than 100 µM with HCT-15; 44.3 µM (inactive) in the assay on 786-0; 40.7 µM (inactive) in the assay on SK-MEL-2. Besides, the GI50 in the assay on HT-29 was > 100 µM (inactive); with OVCAR-4, > 100 µM (inactive); in the assay on SN12C, > 100 µM (inactive); in the assay on SW-620 it was > 100 µM (inactive); with M14, > 100 µM (inactive); with LXFL 529 it was 28.4 µM (inactive).

Take `CCN(CCCl)CCCCCNc1c2ccccc2nc2ccc(OC)cc12`: the GI50 with NCI-H23 is 0.356 µM (active); in the assay on HL-60 it was 0.0411 µM (active); with NCI-H522 it was 0.628 µM (active); in the assay with HCT-15, 1.3 µM; in the assay with 786-0 it was 0.345 µM (active); in the assay on NCI-H226 it was 0.321 µM (active). The GI50 in the assay on SK-MEL-2 is 1.09 µM (active); with HT-29 it was 0.259 µM (active); in the assay on OVCAR-4, 1.01 µM (active); in the assay on HOP-92 it was 0.436 µM (active); with SN12C, 0.232 µM (active); in the assay with SW-620 it was 0.154 µM (active). Moreover, the GI50 is 2.15 µM (inactive) with M14 and 0.444 µM (active) in the assay on LXFL 529.

With `CCOC(=O)C1=C(C)N(NC(=O)Nc2ccccc2)C2(N)N(NC(=O)Nc3ccccc3)C(C)=C(C(=O)OCC)C12C#N` (stereo unspecified), the GI50 in the assay on NCI-H23 is 22.3 µM (inactive); in the assay with NCI-H522, 18.9 µM (inactive); with HCT-15, 19.4 µM; with 786-0, 18 µM (inactive); in the assay on NCI-H226 it was 18.4 µM (inactive); in the assay on SK-MEL-2 it was 16.1 µM (inactive). In addition, the GI50 in the assay on HT-29 is 20.7 µM (inactive); in the assay on OVCAR-4 it was 17.4 µM (inactive); in the assay with HOP-92, 20.2 µM (inactive); in the assay with SN12C, 17.6 µM (inactive); with SW-620, 18.9 µM (inactive); in the assay on M14 it was 19.9 µM (inactive). The GI50 with LXFL 529 is 18.6 µM (inactive).

With `Cc1nc(O)nc(CC(O)(c2ccccc2)c2ccccc2)c1-c1ccccc1`, the GI50 in the assay on NCI-H23 is > 100 µM (inactive); in the assay on HL-60, > 100 µM (inactive); in the assay on NCI-H522 it was 58.5 µM (inactive); in the assay on HCT-15, greater than 100 µM; in the assay with 786-0, > 100 µM (inactive); with NCI-H226 it was > 100 µM (inactive). Besides, the GI50 with SK-MEL-2 was > 100 µM (inactive); in the assay with HT-29, > 100 µM (inactive); with OVCAR-4, > 100 µM (inactive); with HOP-92 it was 55.8 µM (inactive); with SN12C it was > 100 µM (inactive); in the assay with SW-620, > 100 µM (inactive). For the same molecule, the GI50 with M14 and in the assay with LXFL 529 was > 100 µM (inactive) in each case.

For `COC(=O)c1ccc(C(=O)OC)c2nc3cc(Cl)ccc3nc12`, the GI50 in the assay on NCI-H23 was > 100 µM (inactive); in the assay with HL-60, > 100 µM (inactive); in the assay with NCI-H522, > 100 µM (inactive); with HCT-15, greater than 100 µM; in the assay with 786-0, > 100 µM (inactive); with NCI-H226 it was > 100 µM (inactive). Besides, the GI50 is > 100 µM (inactive) in the assay with SK-MEL-2; 75.3 µM (inactive) in the assay on HT-29; > 100 µM (inactive) in the assay with OVCAR-4; > 100 µM (inactive) with HOP-92; > 100 µM (inactive) in the assay with SN12C; > 100 µM (inactive) in the assay with SW-620. The GI50 in the assay on M14 and with LXFL 529 was > 100 µM (inactive) in each case.

For the molecule `N#CC1=C(N)Oc2c(ccc3cccnc23)C1c1ccccc1` (stereo unspecified), the GI50 is 0.333 µM (active) in the assay on SR; 1.31 µM (inactive) in the assay on NCI-H23; 0.267 µM (active) with HL-60; 0.443 µM with HCT-15; 6 µM (inactive) in the assay on 786-0; 0.296 µM (active) in the assay on SK-MEL-2. The GI50 in the assay on HT-29 was 0.339 µM (active); in the assay with OVCAR-4, 17.2 µM (inactive); in the assay on HOP-92, 9.35 µM (inactive); with SN12C it was 3.3 µM (inactive); with SW-620, 0.51 µM (active); in the assay on M14, 0.57 µM (active). In the assay on LXFL 529, the GI50 was 1.7 µM (inactive).

For `Cc1nc(Nc2ccccc2)sc1C(=O)CC(=O)C(=O)NC12CC3CC(CC(C3)C1)C2`, the GI50 in the assay on NCI-H23 was > 100 µM (inactive); with HL-60, 92.3 µM (inactive); in the assay with NCI-H522, 79.6 µM (inactive); in the assay with HCT-15 it was greater than 100 µM; with 786-0 it was > 100 µM (inactive); with NCI-H226 it was > 100 µM (inactive). The GI50 in the assay with SK-MEL-2 is > 100 µM (inactive); in the assay on HT-29, > 100 µM (inactive); in the assay on OVCAR-4, > 100 µM (inactive); in the assay with HOP-92 it was 23 µM (inactive); in the assay on SN12C, > 100 µM (inactive); in the assay with SW-620, > 100 µM (inactive). The GI50 in the assay with M14 is > 100 µM (inactive); in the assay on LXFL 529, 99.5 µM (inactive).

`[N-]=[N+]=NC12CC3C4CC5CC3C(C1)C(C5)C4C2`: the GI50 in the assay on SR, in the assay on NCI-H23, with NCI-H522, with 786-0, in the assay on NCI-H226 and with SK-MEL-2 was > 100 µM (inactive) in each case. For the same molecule, the GI50 in the assay with HT-29, with OVCAR-4, in the assay on HOP-92, in the assay with SN12C, in the assay on SW-620 and in the assay with M14 was > 100 µM (inactive) throughout. Also, the GI50 in the assay on LXFL 529 was > 100 µM (inactive).

For the molecule `CNS(=O)(=O)NNS(=O)(=O)c1cccc([N+](=O)[O-])c1`, the GI50 in the assay with SR is > 100 µM (inactive); with NCI-H23, > 100 µM (inactive); with NCI-H522, > 100 µM (inactive); in the assay with HCT-15, greater than 100 µM; with 786-0 it was > 100 µM (inactive); with SK-MEL-2 it was > 100 µM (inactive). For the same molecule, the GI50 in the assay with HT-29, in the assay with OVCAR-4, in the assay with SN12C, in the assay with SW-620, in the assay on M14 and in the assay on LXFL 529 was > 100 µM (inactive) in each case.

For `CC1=NN(C(=O)c2ccncc2)C(=O)C1/N=N/c1ccc(F)cc1` (stereo unspecified), the GI50 in the assay with NCI-H23 was > 100 µM (inactive); in the assay with HL-60, > 100 µM (inactive); in the assay with NCI-H522, > 100 µM (inactive); with HCT-15 it was greater than 100 µM; with 786-0, > 100 µM (inactive); with NCI-H226, 81.1 µM (inactive). Also, the GI50 was > 100 µM (inactive) with SK-MEL-2; > 100 µM (inactive) in the assay with HT-29; > 100 µM (inactive) in the assay with OVCAR-4; 51.6 µM (inactive) in the assay with HOP-92; > 100 µM (inactive) with SN12C; > 100 µM (inactive) in the assay with SW-620. Also, the GI50 in the assay on M14 and in the assay with LXFL 529 was > 100 µM (inactive) each time.

On to `Cc1cc2c(c(C(N)=O)c1C)-c1cc(Cl)cc(Cl)c1C2=O`, for which the GI50 was > 100 µM (inactive) in the assay with NCI-H23; > 100 µM (inactive) in the assay with HL-60; > 100 µM (inactive) in the assay with NCI-H522; greater than 100 µM in the assay on HCT-15; 60.5 µM (inactive) in the assay with 786-0; > 100 µM (inactive) with SK-MEL-2. Also, the GI50 in the assay with HT-29, in the assay with OVCAR-4, with HOP-92, in the assay with SN12C, in the assay with M14 and in the assay with LXFL 529 was > 100 µM (inactive) in each case.

For the molecule `CCOC(=O)C12CCSC1C1(C#N)C(C#N)=CC2(N=P(c2ccccc2)(c2ccccc2)c2ccccc2)n2c(=O)n(-c3ccccc3)c(=O)n21` (stereo unspecified), the GI50 with NCI-H23 was 49.7 µM (inactive); in the assay on HL-60, 26.1 µM (inactive); in the assay on NCI-H522, 29.5 µM (inactive); in the assay on HCT-15 it was 34.8 µM; in the assay on 786-0, 47.8 µM (inactive); in the assay on NCI-H226, 41.3 µM (inactive). Further, the GI50 in the assay on SK-MEL-2 was 48.6 µM (inactive); with HT-29, 39.8 µM (inactive); with OVCAR-4, 21.9 µM (inactive); in the assay on HOP-92 it was 12.4 µM (inactive); in the assay with SN12C, 62.2 µM (inactive); in the assay with SW-620, 64 µM (inactive). The GI50 with M14 is 42.2 µM (inactive); with LXFL 529 it was 28.8 µM (inactive).
